Measured values taken from patent US20220306695A1, “COMPSTATIN ANALOGUES AND THEIR MEDICAL USES” (priority 2019, published 2022).
Starred links: 1 amine or outer side, 2 acyl side, 3 side chain; linkers in the order of their positions; H or OH if unused. Positions of bridges follow the written chain, without caps; N, C: chain ends. Non-standard residues stand in square brackets, D forms with d. Residues, ends and D or L forms follow the SMILES beside them. Groups on a side chain read outwards from the residue. *: point of attachment. Trp(1-Me) = Cn1cc(C[C@H](N)C(=O)O)c2ccccc21; Abu(4-yl) = O=C([C@H](CC[*:3])N[*:1])[*:2]; C18 diacid = O=C(O)CCCCCCCCCCCCCCCCC(=O)*; C16 diacid = O=C(O)CCCCCCCCCCCCCCC(=O)*; γGlu = O=C(O)[C@H](CCC(=O)[*:2])N[*:1]; AEEA = NCCOCCOCC(=O)O; Sar = CNCC(=O)O

Test system: classical complement pathway
Assay: In vitro haemolysis assay (inhibition of classical complement pathway)
Type: cell-based, human
Settings: Table 3; human serum, sensitized sheep red blood cells; read-out: IC50[nM], in vitro analysis of inhibition of hemolysis
Description: Method The in vitro effect of test compounds was assessed by measuring their inhibitory effect of the classical complement pathway in a haemolysis assay. Briefly, test compounds and reference compounds were dissolved in DMSO and diluted in Tris/Casein Assay Buffer (10 mM Tris, 145 mM NaCl, 0.5 mM MgCl2, 0.15 mM CaCl2, and 0.1% W/V Casein, adjusted to pH 7.4) as 9-point serial dilutions in a 96 well plate. Sensitized sheep red blood cells (RBC) coated with rabbit anti-sheep erythrocyte antiserum (Complement Technology, Inc., TX, USA) were washed in Tris/Casein Assay Buffer. 50 μL from each well of diluted compound was added to a 96-well plate containing 50 μL diluted human serum (Complement Technology, Inc., TX, USA) and incubated for 15 minutes at room temperature. The serum dilution factor was optimized for every serum batch to obtain 70-90% of maximal haemolysis using the protocol. Then 50 μL sensitized sheep red blood cells were added to all wells ([…] per well). After 30 minutes of incubation at 37° C. with gentle agitation, the reaction was stopped by addition of 50 μL Tris STOP Buffer per well (10 mM EDTA, 10 mM Tris, 145 mM NaCl adjusted to pH 7.4). The RBCs were then removed by centrifugation and the resulting supernatant measured for hemolysis by absorbance at 405 nm. The response was normalized relative to a positive and negative control (vehicle) to calculate the IC50 from the concentration response curve using the 4-parameter logistic (4PL) nonlinear model for curve fitting.

| SMILES | IC50 [nM] |
| --- | --- |
| CC[C@H](C)[C@H](NC(C)=O)C(=O)N[C@H]1CSSC[C@@H](C(=O)N[C@H](C(N)=O)[C@@H](C)O)NC(=O)[C@H](CCCNC(=N)N)NC(=O)[C@H](Cc2c[nH]cn2)NC(=O)[C@H](CC(=O)O)NC(=O)CNC(=O)[C@H](Cc2c[nH]c3ccccc23)NC(=O)[C@H](CC(=O)O)NC(=O)[C@H](CCC(N)=O)NC(=O)[C@H](Cc2c[nH]c3ccccc23)NC(=O)[C@H]([C@@H](C)CC)NC1=O [Compound 17] (Ac-ICIWQDWGDHRCT-NH2; disulfide 2-12) | < 100 |
| CC[C@H](C)[C@@H]1NC(=O)[C@@H](NC(=O)CN(C)C(=O)[C@H](CCC(=O)O)NC(=O)CNC(C)=O)CSSC[C@@H](C(=O)N[C@H](C(=O)N[C@@H](CCC(=O)O)C(=O)N[C@@H](C)C(N)=O)[C@@H](C)O)NC(=O)[C@H](CCCNC(=N)N)NC(=O)[C@H](Cc2c[nH]cn2)NC(=O)[C@H](CCC(=O)O)NC(=O)CNC(=O)[C@H](Cc2c[nH]c3ccccc23)NC(=O)[C@H](CC(=O)O)NC(=O)[C@H](CCC(N)=O)NC(=O)[C@H](Cc2cn(C)c3ccccc23)NC1=O [Compound 88] (Ac-GE[Sar]CI[Trp(1-Me)]QDWGEHRCTEA-NH2; disulfide 4-14) | < 100 |
| CC[C@H](C)[C@H](NC(=O)[C@H](C)NC(=O)[C@H](CO)NC(=O)[C@H](CO)NC(=O)[C@H](CCC(=O)O)NC(=O)CCCCCCCCCCCCCCC(=O)O)C(=O)N[C@H]1CSSC[C@@H](C(=O)N[C@H](C(=O)N[C@@H](CCC(=O)O)C(=O)NCC(=O)N[C@@H](CCC(=O)O)C(N)=O)[C@@H](C)O)NC(=O)[C@H](CCCNC(=N)N)NC(=O)[C@H](Cc2c[nH]cn2)NC(=O)[C@H](CCC(=O)O)NC(=O)CNC(=O)[C@H](Cc2c[nH]c3ccccc23)NC(=O)[C@H](CC(=O)O)NC(=O)[C@H](CCC(N)=O)NC(=O)[C@H](Cc2c[nH]c3ccccc23)NC(=O)[C@H]([C@@H](C)CC)NC1=O [Compound 99] ({C16 diacid}-ESSAICIWQDWGEHRCTEGE-NH2; disulfide 6-16) | < 250 |
| CC[C@H](C)[C@H](NC(=O)[C@H](C)NC(=O)[C@H](CO)NC(=O)CNC(=O)[C@H](CCCCNC(=O)COCCOCCNC(=O)COCCOCCNC(=O)CC[C@H](NC(=O)CCCCCCCCCCCCCCC(=O)O)C(=O)O)NC(C)=O)C(=O)N[C@H]1CSSC[C@@H](C(=O)N[C@H](C(=O)N[C@@H](CCC(=O)O)C(=O)NCC(=O)N[C@@H](CCC(=O)O)C(N)=O)[C@@H](C)O)NC(=O)[C@H](CCCNC(=N)N)NC(=O)[C@H](Cc2c[nH]cn2)NC(=O)[C@H](CCC(=O)O)NC(=O)CNC(=O)[C@H](Cc2c[nH]c3ccccc23)NC(=O)[C@H](CC(=O)O)NC(=O)[C@H](CCC(N)=O)NC(=O)[C@H](Cc2c[nH]c3ccccc23)NC(=O)[C@H]([C@@H](C)CC)NC1=O [Compound 100] (Ac-K([AEEA-AEEA-γGlu-C16 diacid])GSAICIWQDWGEHRCTEGE-NH2; disulfide 6-16) | < 500 |
| CC[C@H](C)[C@@H]1NC(=O)[C@@H](NC(=O)[C@H](Cc2ccc(O)cc2)NC(=O)[C@H](CCC(=O)O)NC(=O)[C@H](CO)NC(C)=O)CSSC[C@@H](C(=O)N(C)CC(=O)N[C@@H](CCC(=O)O)C(=O)NCC(=O)N[C@@H](C)C(=O)N[C@@H](CCCCNC(=O)CC[C@H](NC(=O)CNC(=O)CC[C@H](NC(=O)CCCCCCCCCCCCCCCCC(=O)O)C(=O)O)C(=O)O)C(N)=O)NC(=O)[C@H](CCCNC(=N)N)NC(=O)[C@H](Cc2c[nH]cn2)NC(=O)[C@H](CCC(=O)O)NC(=O)CNC(=O)[C@H](Cc2c[nH]c3ccccc23)NC(=O)[C@H](CC(=O)O)NC(=O)[C@H](CCC(N)=O)NC(=O)[C@H](Cc2cn(C)c3ccccc23)NC1=O [Compound 112] (Ac-SEYCI[Trp(1-Me)]QDWGEHRC[Sar]EGAK([γGlu-Gly-γGlu-C18 diacid])-NH2; disulfide 4-14) | < 500 |
| CC[C@H](C)[C@H](NC(C)=O)C(=O)N[C@H]1CSSC[C@@H](C(=O)N[C@H](C(=O)N[C@@H](CCC(=O)O)C(=O)NCC(=O)N[C@@H](CCCCNC(=O)COCCOCCNC(=O)COCCOCCNC(=O)CC[C@H](NC(=O)CCCCCCCCCCCCCCC(=O)O)C(=O)O)C(N)=O)[C@@H](C)O)NC(=O)[C@H](CCCNC(=N)N)NC(=O)[C@H](Cc2c[nH]cn2)NC(=O)[C@H](CCC(=O)O)NC(=O)CNC(=O)[C@H](Cc2c[nH]c3ccccc23)NC(=O)[C@H](CC(=O)O)NC(=O)[C@H](CCC(N)=O)NC(=O)[C@H](Cc2c[nH]c3ccccc23)NC(=O)[C@H]([C@@H](C)CC)NC1=O [Compound 93] (Ac-ICIWQDWGEHRCTEGK([AEEA-AEEA-γGlu-C16 diacid])-NH2; disulfide 2-12) | < 500 |
| CC[C@H](C)[C@@H]1NC(=O)[C@@H](NC(=O)[C@H](Cc2ccccc2)NC(=O)[C@H](CCC(=O)O)NC(C)=O)CSSC[C@@H](C(=O)N[C@@H](CCC(=O)O)C(=O)NCC(=O)N[C@@H](CCC(=O)O)C(=O)N[C@@H](CCCCNC(=O)CC[C@H](NC(=O)CNC(=O)CC[C@H](NC(=O)CCCCCCCCCCCCCCCCC(=O)O)C(=O)O)C(=O)O)C(N)=O)NC(=O)[C@H](CCCNC(=N)N)NC(=O)[C@H](Cc2c[nH]cn2)NC(=O)[C@H](CCC(=O)O)NC(=O)CNC(=O)[C@H](Cc2c[nH]c3ccccc23)NC(=O)[C@H](CC(=O)O)NC(=O)[C@H](CCC(N)=O)NC(=O)[C@H](Cc2cn(C)c3ccccc23)NC1=O [Compound 134] (Ac-EFCI[Trp(1-Me)]QDWGEHRCEGEK([γGlu-Gly-γGlu-C18 diacid])-NH2; disulfide 3-13) | < 100 |
| CC[C@H](C)[C@@H]1NC(=O)[C@@H](NC(=O)[C@H](Cc2ccc(O)cc2)NC(=O)[C@H](CCC(=O)O)NC(=O)[C@H](CO)NC(C)=O)CSSC[C@@H](C(=O)N(C)CC(=O)N[C@@H](CCC(=O)O)C(=O)N[C@@H](C)C(N)=O)NC(=O)[C@H](CCCNC(=N)N)NC(=O)[C@H](Cc2c[nH]cn2)NC(=O)[C@H](CCC(=O)O)NC(=O)CNC(=O)[C@H](Cc2c[nH]c3ccccc23)NC(=O)[C@H](CC(=O)O)NC(=O)[C@H](CCC(N)=O)NC(=O)[C@H](Cc2cn(C)c3ccccc23)NC1=O [Compound 71] (Ac-SEYCI[Trp(1-Me)]QDWGEHRC[Sar]EA-NH2; disulfide 4-14) | < 100 |
| CC[C@H](C)[C@H](NC(C)=O)C(=O)N[C@H]1CSSC[C@@H](C(=O)N[C@H](C(N)=O)[C@@H](C)O)NC(=O)[C@H](CCCNC(=N)N)NC(=O)[C@H](Cc2c[nH]cn2)NC(=O)[C@H](CCCNC(=N)N)NC(=O)CNC(=O)[C@H](Cc2c[nH]c3ccccc23)NC(=O)[C@H](CC(=O)O)NC(=O)[C@H](CCC(N)=O)NC(=O)[C@H](Cc2c[nH]c3ccccc23)NC(=O)[C@H]([C@@H](C)CC)NC1=O [Compound 18] (Ac-ICIWQDWGRHRCT-NH2; disulfide 2-12) | < 100 |
| CC[C@H](C)[C@@H]1NC(=O)[C@@H](NC(=O)[C@H](Cc2ccccc2)NC(=O)[C@H](CCC(=O)O)NC(=O)CNC(C)=O)CSCC[C@@H](C(=O)N(C)CC(=O)N[C@@H](CCC(=O)O)C(=O)N[C@@H](C)C(=O)N[C@@H](CCC(=O)O)C(=O)NCCOCCOCC(=O)NCCOCCOCC(=O)N[C@@H](CCCCNC(=O)CC[C@H](NC(=O)CNC(=O)CC[C@H](NC(=O)CCCCCCCCCCCCCCCCC(=O)O)C(=O)O)C(=O)O)C(N)=O)NC(=O)[C@H](CCCNC(=N)N)NC(=O)[C@H](Cc2c[nH]cn2)NC(=O)[C@H](CCC(=O)O)NC(=O)CN(C)C(=O)[C@H](Cc2c[nH]c3ccccc23)NC(=O)[C@H](CC(=O)O)NC(=O)[C@H](CCC(N)=O)NC(=O)[C@H](Cc2cn(C)c3ccccc23)NC1=O [Compound 149, Ac-GEFA(1)I[1-Me-Trp]QDW[Sar]EHRhC(1)[Sar]EAE[Peg3][Peg3]-K([17-carboxy-heptadecanoyl][γGlu]G[γGlu])-NH2] (Ac-GEFCI[Trp(1-Me)]QDW[Sar]EHR[Abu(4-yl)][Sar]EAE[AEEA][AEEA]K([γGlu-Gly-γGlu-C18 diacid])-NH2; thioether 4-14) | < 100 |
| CC[C@H](C)[C@H](NC(C)=O)C(=O)N[C@H]1CSSC[C@@H](C(=O)N[C@H](C(=O)N[C@@H](CCC(=O)O)C(=O)NCC(=O)N[C@@H](CCCCNC(=O)CC[C@H](NC(=O)CCCCCCCCCCCCCCC(=O)O)C(=O)O)C(N)=O)[C@@H](C)O)NC(=O)[C@H](CCCNC(=N)N)NC(=O)[C@H](Cc2c[nH]cn2)NC(=O)[C@H](CCC(=O)O)NC(=O)CNC(=O)[C@H](Cc2c[nH]c3ccccc23)NC(=O)[C@H](CC(=O)O)NC(=O)[C@H](CCC(N)=O)NC(=O)[C@H](Cc2c[nH]c3ccccc23)NC(=O)[C@H]([C@@H](C)CC)NC1=O [Compound 92] (Ac-ICIWQDWGEHRCTEGK([γGlu-C16 diacid])-NH2; disulfide 2-12) | < 1000 |
| CC[C@H](C)[C@H](NC(C)=O)C(=O)N[C@H]1CSSC[C@@H](C(=O)N[C@H](C(=O)NCC(=O)N[C@@H](C)C(=O)N[C@@H](CCC(=O)O)C(=O)N[C@@H](CO)C(N)=O)[C@@H](C)O)NC(=O)[C@H](CCCNC(=N)N)NC(=O)[C@H](Cc2c[nH]cn2)NC(=O)[C@H](C)NC(=O)CNC(=O)[C@H](Cc2c[nH]c3ccccc23)NC(=O)[C@H](CCCCN)NC(=O)[C@H](CCC(N)=O)NC(=O)[C@H](Cc2c[nH]c3ccccc23)NC(=O)[C@H]([C@@H](C)CC)NC1=O [Compound 8] (Ac-ICIWQKWGAHRCTGAES-NH2; disulfide 2-12) | < 500 |
